pEC50: −log10 of the molar value. Like-named read-outs stand apart in the source and are kept apart here.
Legend:
[1] = system: KKA^y mice; experiment: Hypoglycemic and hypolipidemic actions in mice (test compound in diet, plasma glucose and triglyceride); format: in vivo; conditions: Mus musculus, feed or water, 96 h, 4 days
Protocol: A test compound was added to a powdered diet (CE-2, Clea Japan Inc.) at a concentration of 0.01%, and the diet was given ad libitum to KKA^y mice (9 to 12 weeks old, 5 animals in a group), a model of obese Type II diabetes mellitus (non-insulin dependent diabetes mellitus), for 4 days. During this period, water was given ad libitum. Blood was sampled from orbital venous plexus and plasma glucose and triglyceride levels were determined enzymatically using L type Wako Glu2 (Wako Pure Chemical In. Ltd.) and Iatro-MA701 TG kit (Iatron Laboratories Inc.) or L type Wako TG.H (Wako Pure Chemical Ind. Ltd.), respectively.
The value of each treatment group is represented as % reduction when compared with the non-treatment group, and summarized in Table 1.

[2] = target: T1, PPARγ-RXRα heterodimer (Homo sapiens, UniProt P37231); experiment: PPARγ-RXRα heterodimer transactivation assay (luciferase reporter in PPARγ: RXRα: 4ERPP/CHO-K1 cell); format: cell-based; conditions: luciferase induction, 48 hours, concentration for 50% of the maximum activity
T1 construct: expressed in transfected cells
T1 sequence (P37231 1-477 isoform P37231-2): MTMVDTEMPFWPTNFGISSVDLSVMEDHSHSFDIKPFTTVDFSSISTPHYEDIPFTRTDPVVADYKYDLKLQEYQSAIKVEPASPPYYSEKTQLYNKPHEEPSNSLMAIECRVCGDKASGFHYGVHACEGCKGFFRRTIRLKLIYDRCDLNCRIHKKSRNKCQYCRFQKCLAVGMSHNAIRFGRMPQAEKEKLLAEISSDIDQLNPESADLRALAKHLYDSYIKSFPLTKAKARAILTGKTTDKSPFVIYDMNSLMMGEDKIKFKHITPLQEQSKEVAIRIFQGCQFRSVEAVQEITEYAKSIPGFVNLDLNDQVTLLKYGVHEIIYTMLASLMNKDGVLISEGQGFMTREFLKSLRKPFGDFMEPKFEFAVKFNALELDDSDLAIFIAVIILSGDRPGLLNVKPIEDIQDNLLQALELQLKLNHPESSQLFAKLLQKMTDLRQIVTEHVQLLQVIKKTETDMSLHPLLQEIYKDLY
T1 sequence (P19793 1-462 partner): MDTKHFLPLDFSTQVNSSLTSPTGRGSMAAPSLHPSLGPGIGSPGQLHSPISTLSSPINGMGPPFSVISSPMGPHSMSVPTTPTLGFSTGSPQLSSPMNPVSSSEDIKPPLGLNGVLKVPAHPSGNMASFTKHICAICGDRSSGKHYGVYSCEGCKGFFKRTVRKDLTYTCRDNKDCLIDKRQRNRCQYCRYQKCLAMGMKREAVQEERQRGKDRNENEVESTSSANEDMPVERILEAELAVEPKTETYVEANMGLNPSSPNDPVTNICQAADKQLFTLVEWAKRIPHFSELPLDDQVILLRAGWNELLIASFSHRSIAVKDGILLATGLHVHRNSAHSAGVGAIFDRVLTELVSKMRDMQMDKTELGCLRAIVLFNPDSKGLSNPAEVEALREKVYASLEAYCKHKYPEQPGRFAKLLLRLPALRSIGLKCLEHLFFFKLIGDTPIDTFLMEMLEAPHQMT
Protocol: After washing a 96-well white plate with PBS (Phosphate-buffered saline), 90 μl of HAM F12 medium containing 0.1% fatty acid-free bovine serum albumin (BSA) and 10 μl of a test substance were added to the plate, which was then cultured in a carbonate gas incubator at 37° C. for 48 hours. After removing the medium, 40 μl of […] 7.5 (Wako Pure Chemical Ind. Ltd.) was added, and after stirring, a luciferase activity was determined using Lumistar (BMG Labtechnologies GmBH, Germany).
An induction magnitude was calculated based on the luciferase activity of each test substance with the luciferase activity in the non-treatment group being regarded as 1.
Subsequently, the cells were transferred into a HAM F12 medium containing 10% Fetal Bovine Serum and cultured for 24 hours and then the cells were scraped again and centrifuged, and then suspended in HAM F12 medium containing 10% Fetal Bovine Serum supplemented with 500 μg/ml of GENETICIN (Life Technologies, Inc., USA) and 250 μg of ZEOCIN (Invitrogen, USA) and diluted to the density of 10^4 cells/ml upon inoculation to a 96-well plate (Corning Coster Corporation, USA), which was cultured in a carbonate gas incubator at 37° C., whereby obtaining a GENETICIN- and ZEOCIN-resistant transformant.
Subsequently, the transformant cell line thus obtained was cultured in a 24-well plate (Corning Coster Corporation, USA) and then screened, by addition of 10 μM Pioglitazone, for a cell line in which the luciferase expression was induced, i.e., PPARγ: RXRα: 4ERPP/CHO-K1 cell.

[3] = system: KKA^y mice; experiment: Hypoglycemic and hypolipidemic actions in mice (test compound in diet, plasma glucose and triglyceride); format: in vivo; conditions: Mus musculus, feed or water, 96 h, dosage: 0.005% in diet, 4 days
[4] = 0.01% in diet, plasma triglyceride, Iatro-MA701 TG kit, compared with non-treatment group, read-out: Hypotriglyceridemic effect (% reduction)
[5] = 0.01% in powdered diet, plasma glucose, compared with non-treatment group, read-out: Hypoglycemic effect (% reduction)
[6] = 0.01% in diet, plasma triglyceride, quantified using L-type Wako TG.H, read-out: Hypotriglyceridemic effect (% reduction)

SMILES | pEC50 [2] | melting point | inhibition in vivo at 0.01 % [1, 4] | inhibition in vivo at 0.01 % [1, 5] | inhibition in vivo at 0.005 % ([3]; plasma glucose, compared with non-treatment group, read-out: Hypoglycemic effect (% reduction)) | inhibition in vivo at 0.005 % ([3]; plasma triglyceride, quantified using L-type Wako TG.H, read-out: Hypotriglyceridemic effect (% reduction)) | inhibition in vivo at 0.01 % [1, 6]
Cc1oc(-c2ccccc2)nc1COc1ccc(CO/N=C(\C(=O)O)c2ccccc2)cc1 [Example 1, Z-2-[4-(5-methyl-2-phenyl-4-oxazolylmethoxy)benzyloxyimino]-2-phenylacetic acid] | – | – | 35% | 36% | – | – | –
Cc1oc(-c2ccccc2)nc1COc1ccc(CO/N=C(\C(=O)O)C(C)C)cc1 [Example 25, Z-3-methyl-2-[4-(5-methyl-2-phenyl-4-oxazolylmethoxy)benzyloxyimino]butyric acid] | 6.10 | – | 66% | 38% | – | – | –
Cc1oc(-c2ccccc2)nc1COc1ccc(CO/N=C(\CCC(=O)O)c2ccccc2)cc1 [Example 7, E-4-[4-(5-methyl-2-phenyl-4-oxazolylmethoxy)benzyloxyimino]-4-phenylbutyric acid] | – | – | 61% | 42% | – | – | –
Cc1oc(-c2ccccc2)nc1COc1ccc(CO/N=C(\C(=O)O)c2ccc(Br)cc2)cc1 [Example 10, Z-2-(4-bromophenyl)-2-[4-(5-methyl-2-phenyl-4-oxazolylmethoxy)benzyloxyimino]acetic acid] | – | – | 45% | 36% | – | – | –

Continued, in another order:

pEC50 [2] | melting point | SMILES | inhibition in vivo at 0.01 % [1, 4] | inhibition in vivo at 0.01 % [1, 5] | inhibition in vivo at 0.005 % ([3]; plasma glucose, compared with non-treatment group, read-out: Hypoglycemic effect (% reduction)) | inhibition in vivo at 0.005 % ([3]; plasma triglyceride, quantified using L-type Wako TG.H, read-out: Hypotriglyceridemic effect (% reduction)) | inhibition in vivo at 0.01 % [1, 6]
6.48 | 164 to 165 °C | Cc1oc(-c2ccccc2)nc1COc1ccc(CO/N=C(\CCC(N)=O)c2ccccc2)cc1 [Example 106, E-4-[4-(5-methyl-2-phenyl-4-oxazolylmethoxy)benzyloxyimino]-4-phenylbutyramide] | – | – | 46% | 65% | –
7.33 | – | Cc1oc(-c2ccccc2)nc1COc1ccc(CO/N=C(\CCC(=O)O)c2ccc(F)cc2)cc1 [Example 17, E-4-(4-fluorophenyl)-4-[4-(5-methyl-2-phenyl-4-oxazolylmethoxy)benzyloxyimino]butyric acid] | – | 49% | – | – | 59%
6.59 | – | Cc1oc(-c2ccccc2)nc1COc1ccc(CO/N=C(\CCCCCCC(=O)O)c2ccccc2)cc1 [Example 81, E-8-[4-(5-methyl-2-phenyl-4-oxazolylmethoxy)benzyloxyimino]-8-phenyloctanoic acid] | – | 54% | – | – | 75%
6.39 | – | Cc1oc(-c2ccccc2)nc1COc1ccc(CO/N=C(\C(=O)O)c2ccc(Oc3ccccc3)cc2)cc1 [Example 11, Z-2-[4-(5-methyl-2-phenyl-4-oxazolylmethoxy)benzyloxyimino]-2-(4-phenoxyphenyl)acetic acid] | 82% | 49% | – | – | –
